Test results taken from PubChem BioAssay AID330 (DTP/NCI, 2004).
Where “and” joins values, the source holds several entries; their conditions need not be identical. Identical values can stand only once. Inconclusive results and toxic doses are left out.

Tested on: P388 leukemia ip, CD2F1 mice, survival T/C
Assay: NCI In Vivo Anticancer Drug Screen. Data for tumor model P388 Leukemia (intraperitoneal) in CD2F1 (CDF1) mice
Conditions: endpoint: median survival time, higher = longer survival
How it was run: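 Mice carrying the transplanted tumor received test compound or vehicle. Survival was recorded in each group, and the value is the treated-group measurement divided by that of the vehicle-treated control group.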

[1] = dose: 100.0 mg/kg/injection, schedule: Q01DX001 (ip), vehicle: saline with Tween-80
[2] = dose: 200.0 mg/kg/injection, schedule: Q01DX001 (ip), vehicle: saline with Tween-80
[3] = dose: 50.0 mg/kg/injection, schedule: Q01DX005 (ip), vehicle: Klucel (hydroxypropylcellulose) (HPC)
[4] = dose: 100.0 mg/kg/injection, schedule: Q01DX005 (ip), vehicle: Klucel (hydroxypropylcellulose) (HPC)
[5] = dose: 200.0 mg/kg/injection, schedule: Q01DX005 (ip), vehicle: Klucel (hydroxypropylcellulose) (HPC)

`O=c1[nH]cc([N+](=O)[O-])c(=O)[nH]1` was tested, and the T/C (dose: 25.0 mg/kg/injection, schedule: Q01DX009 (ip), vehicle: Klucel (hydroxypropylcellulose) (HPC)) was 94 % of control, the T/C (dose: 50.0 mg/kg/injection, schedule: Q01DX009 (ip), vehicle: Klucel (hydroxypropylcellulose) (HPC)) was 99 % of control and the T/C (dose: 100.0 mg/kg/injection, schedule: Q01DX009 (ip), vehicle: Klucel (hydroxypropylcellulose) (HPC)) was 95 % of control. For the same compound, the T/C (dose: 100.0 mg/kg/injection, schedule: Q01DX009 (ip), vehicle: distilled water + Tween-80) was 102 % of control, the T/C (dose: 200.0 mg/kg/injection, schedule: Q01DX009 (ip), vehicle: Klucel (hydroxypropylcellulose) (HPC)) was 107 % of control and the T/C (dose: 200.0 mg/kg/injection, schedule: Q01DX009 (ip), vehicle: distilled water + Tween-80) was 100 % of control. The T/C (dose: 400.0 mg/kg/injection, schedule: Q01DX009 (ip), vehicle: distilled water + Tween-80) was 99 % of control.
For `COc1ccc2nc(C)c3c(c2c1)C(=O)N(CCCN1CCN(CCCN2C(=O)c4c(C)nc5ccc(OC)cc5c4C2=O)CC1)C3=O`, the T/C (dose: 6.25 mg/kg/injection, schedule: Q01DX005 (ip), vehicle: Klucel (hydroxypropylcellulose) (HPC)) was 93 % of control, the T/C (dose: 12.5 mg/kg/injection, schedule: Q01DX005 (ip), vehicle: Klucel (hydroxypropylcellulose) (HPC)) was 90 % of control and the T/C (dose: 25.0 mg/kg/injection, schedule: Q01DX005 (ip), vehicle: Klucel (hydroxypropylcellulose) (HPC)) was 96 % of control.
For `CSCC[C@H](NC(C)=O)B1OCCO1`, the T/C (dose: 60.0 mg/kg/injection, schedule: Q01DX005 (ip), vehicle: saline) was 100 % of control, the T/C (dose: 120.0 mg/kg/injection, schedule: Q01DX005 (ip), vehicle: saline) was 104 % of control and the T/C (dose: 240.0 mg/kg/injection, schedule: Q01DX005 (ip), vehicle: saline) was 109 % of control.
With `Cc1cc(=O)oc2cc(OC(=O)Nc3ccc(Cl)cc3C(F)(F)F)ccc12` the T/C (dose: 60.0 mg/kg/injection, schedule: Q01DX005 (ip), vehicle: saline with Tween-80) was 90 % of control and the T/C (dose: 120.0 mg/kg/injection, schedule: Q01DX005 (ip), vehicle: saline with Tween-80) was 95 % of control.
With `C=C=CCC(=O)N1CCCC1` the T/C (dose: 50.0 mg/kg/injection, schedule: Q04DX002 (ip), vehicle: saline with Tween-80) was 99 % of control, the T/C (dose: 100.0 mg/kg/injection, schedule: Q04DX002 (ip), vehicle: saline with Tween-80) was 101 % of control and the T/C (dose: 200.0 mg/kg/injection, schedule: Q04DX002 (ip), vehicle: saline with Tween-80) was 104 % of control.
`CCOc1ccccc1C(=O)Nc1cc(C)nn1-c1ccccc1` was tested, and the T/C [1] was 102 % of control, the T/C [2] was 100 % of control and the T/C (dose: 400.0 mg/kg/injection, schedule: Q01DX001 (ip), vehicle: saline with Tween-80) was 106 % of control.
In the case of `CC1(C)N=C(N)N=C(N)N1c1cccc(CC(=O)Nc2ccc(S(=O)(=O)F)cc2)c1`, the T/C (dose: 200.0 mg/kg/injection, schedule: Q04DX003 (ip), vehicle: saline with Tween-80) is reported as 122 % of control.
In the case of `O=c1c2sc3ccccc3c2ncn1/N=C/c1cccc([N+](=O)[O-])c1`, the T/C [3] is reported as 99 % of control, the T/C [4] is reported as 92 % of control and the T/C [5] is reported as 91 % of control.
With `COc1cccc2c1C(=O)c1c(O)c3c(c(O)c1C2=O)CC(O)(C(O)CO)CC3OC1CC(N2CCSCC2)C(O)C(C)O1` (centres undefined) the T/C (dose: 3.12 mg/kg/injection, schedule: Q04DX003 (ip), vehicle: saline) was 103 % of control, the T/C (dose: 6.25 mg/kg/injection, schedule: Q04DX003 (ip), vehicle: saline) was 110 % of control and the T/C (dose: 12.5 mg/kg/injection, schedule: Q04DX003 (ip), vehicle: saline) was 110 % of control and 112 % of control. The T/C (dose: 25.0 mg/kg/injection, schedule: Q04DX003 (ip), vehicle: saline) was 122 % of control and the T/C (dose: 100.0 mg/kg/injection, schedule: Q04DX003 (ip), vehicle: saline) was 122 % of control.
In the case of `CC1OC(OC2C(Oc3cc(O)c4c(=O)cc(-c5ccc(OC6OC(CO)C(O)C(O)C6OC6OC(C)C(O)C(O)C6O)c(O)c5)oc4c3)OC(CO)C(O)C2O)C(O)C(O)C1O` (centres undefined), the T/C (dose: 3.0 mg/kg/injection, schedule: Q01DX009 (ip), vehicle: Klucel (hydroxypropylcellulose) (HPC)) is reported as 106 % of control, the T/C (dose: 6.0 mg/kg/injection, schedule: Q01DX009 (ip), vehicle: Klucel (hydroxypropylcellulose) (HPC)) is reported as 95 % of control and the T/C (dose: 12.0 mg/kg/injection, schedule: Q01DX009 (ip), vehicle: Klucel (hydroxypropylcellulose) (HPC)) is reported as 93 % of control. For the same compound, the T/C (dose: 24.0 mg/kg/injection, schedule: Q01DX009 (ip), vehicle: Klucel (hydroxypropylcellulose) (HPC)) was 95 % of control.
`Nc1ncnc2c1ncn2[C@@H](C=O)O[C@@H](C=O)CO` was tested, and the T/C (dose: 3.13 mg/kg/injection, schedule: Q01DX009 (ip), vehicle: other) was 155 % of control and the T/C (dose: 6.25 mg/kg/injection, schedule: Q01DX009 (ip), vehicle: other) was 150 % of control and 169 % of control.
In the case of `CCOC1(OCC)Cc2nc3ccccc3cc21`, the T/C (dose: 50.0 mg/kg/injection, schedule: Q01DX005 (ip), vehicle: saline + Tween-80 + alcohol) is reported as 106 % of control, the T/C (dose: 100.0 mg/kg/injection, schedule: Q01DX005 (ip), vehicle: saline + Tween-80 + alcohol) is reported as 109 % of control and the T/C (dose: 200.0 mg/kg/injection, schedule: Q01DX005 (ip), vehicle: saline + Tween-80 + alcohol) is reported as 106 % of control.
In the case of `C[N+]1(C)CCOCC1`, the T/C (dose: 1.56 mg/kg/injection, schedule: Q01DX009 (ip), vehicle: saline) is reported as 94 % of control, the T/C (dose: 6.25 mg/kg/injection, schedule: Q01DX009 (ip), vehicle: saline) is reported as 100 % of control and 101 % of control and the T/C (dose: 12.5 mg/kg/injection, schedule: Q01DX009 (ip), vehicle: saline) is reported as 98 % of control. The T/C (dose: 25.0 mg/kg/injection, schedule: Q01DX009 (ip), vehicle: saline) was 88 % of control.
For `NC(=S)/C(N)=N/Nc1ccc(Cl)cc1`, the T/C (dose: 6.25 mg/kg/injection, schedule: Q01DX009 (ip), vehicle: saline with Tween-80) was 104 % of control, the T/C (dose: 12.5 mg/kg/injection, schedule: Q01DX009 (ip), vehicle: saline with Tween-80) was 103 % of control and the T/C (dose: 25.0 mg/kg/injection, schedule: Q01DX009 (ip), vehicle: saline with Tween-80) was 106 % of control. The T/C (dose: 50.0 mg/kg/injection, schedule: Q01DX009 (ip), vehicle: saline with Tween-80) was 116 % of control.
For `CCC1(C(C)C)NC(=O)NC1=O` (centres undefined), the T/C [3] was 106 % of control, the T/C [4] was 104 % of control and the T/C [5] was 106 % of control.
With `CC1(C)CC(C)(OC(=O)c2ccc([N+](=O)[O-])cc2)N=N1` (centres undefined) the T/C (dose: 12.5 mg/kg/injection, schedule: Q01DX009 (ip), vehicle: other) was 102 % of control, the T/C (dose: 25.0 mg/kg/injection, schedule: Q01DX009 (ip), vehicle: other) was 97 % of control and the T/C (dose: 50.0 mg/kg/injection, schedule: Q01DX009 (ip), vehicle: other) was 102 % of control. The T/C (dose: 100.0 mg/kg/injection, schedule: Q01DX009 (ip), vehicle: other) was 100 % of control and the T/C (dose: 200.0 mg/kg/injection, schedule: Q01DX009 (ip), vehicle: other) was 101 % of control.
`C=CCOCC(O)Cn1cnc2c(N)ncnc21` (centres undefined) was tested, and the T/C [3] was 97 % of control, the T/C [4] was 106 % of control and the T/C [5] was 100 % of control.
`Cc1ccccc1Nc1ccnc2c1ccc1ccccc12` was tested, and the T/C (dose: 50.0 mg/kg/injection, schedule: Q01DX005 (ip), vehicle: saline with Tween-80) was 88 % of control, the T/C (dose: 100.0 mg/kg/injection, schedule: Q01DX005 (ip), vehicle: saline with Tween-80) was 92 % of control and the T/C (dose: 200.0 mg/kg/injection, schedule: Q01DX005 (ip), vehicle: saline with Tween-80) was 88 % of control.
In the case of `COCOC(/C=C/C=C/CCCCOCc1ccccc1)CCC/C=C(\C)CO` (centres undefined), the T/C (dose: 50.0 mg/kg/injection, schedule: Q01DX001 (ip), vehicle: saline with Tween-80) is reported as 104 % of control, the T/C [1] is reported as 102 % of control and the T/C [2] is reported as 103 % of control.
In the case of `CC(C)C1OCN2CCCCC12` (centres undefined), the T/C (dose: 50.0 mg/kg/injection, schedule: Q01DX005 (ip), vehicle: saline) is reported as 105 % of control, the T/C (dose: 100.0 mg/kg/injection, schedule: Q01DX005 (ip), vehicle: saline) is reported as 108 % of control and the T/C (dose: 200.0 mg/kg/injection, schedule: Q01DX005 (ip), vehicle: saline) is reported as 116 % of control.
For `CC1=C(C)C(=O)OC(C(C)(O)C2(O)CC=C3C4CC(O)C5(O)C(O)C=CC(=O)C5(C)C4CCC32C)C1` (centres undefined), the T/C (dose: 7.75 mg/kg/injection, schedule: Q01DX005 (ip), vehicle: Klucel (hydroxypropylcellulose) (HPC)) was 105 % of control, the T/C (dose: 15.5 mg/kg/injection, schedule: Q01DX005 (ip), vehicle: Klucel (hydroxypropylcellulose) (HPC)) was 105 % of control and the T/C (dose: 31.0 mg/kg/injection, schedule: Q01DX005 (ip), vehicle: Klucel (hydroxypropylcellulose) (HPC)) was 106 % of control.
`Cc1cc2n(n1)C(c1ccccc1)=C(c1ccccc1)OC2(c1ccccc1)c1ccccc1` was tested, and the T/C (dose: 50.0 mg/kg/injection, schedule: Q04DX002 (ip), vehicle: Klucel (hydroxypropylcellulose) (HPC)) was 101 % of control, the T/C (dose: 100.0 mg/kg/injection, schedule: Q04DX002 (ip), vehicle: Klucel (hydroxypropylcellulose) (HPC)) was 97 % of control and the T/C (dose: 200.0 mg/kg/injection, schedule: Q04DX002 (ip), vehicle: Klucel (hydroxypropylcellulose) (HPC)) was 97 % of control. The T/C (dose: 400.0 mg/kg/injection, schedule: Q04DX002 (ip), vehicle: Klucel (hydroxypropylcellulose) (HPC)) was 98 % of control.
